Columns and labels:
[1] = tested on: endothelial cells; assay: dsDNA in exosomes released by endothelial cells stimulated by cytokines; assay type: cell-based; settings: cytokine stimulation; FIG. 17, 18
Description: The dsDNA in exosomes released by endothelial cells stimulated by cytokines TNFα and IL17 was detected.

[2] = tested on: mouse; assay: IL-1b injection into ears of the mouse; assay type: in vivo; settings: injected into ears of the mouse; FIG. 26, 27
Description: dsDNA-AIM2 finally released the cytokine IL-1b to act on the body.

Substance | dsDNA content in exosomes released by endothelial cells [1] | psoriasis-like response in a mouse (skin phenotype, spleen, pathology) [2]
IL17: cytokine IL17, clinically relevant cytokine for psoriasis | significantly stimulated the dsDNA content in exosomes released by endothelial cells | –
IL-1b: cytokine interleukin 1b | – | cause psoriasis-like skin phenotype, spleen enlargement and pathological changes
TNFα | significantly stimulated the dsDNA content in exosomes released by endothelial cells | –

— patent US20230130621A1, “APPLICATION OF AGENT IN PREPARATION OF MEDICINE FOR TREATING/INHIBITING PSORIASIS” (priority 2021, published 2023)
